Results reported in US12569500B2, “Combination comprising tricycle compound and use thereof in preparation of medicament for treating HBV” (FUJIAN AKEYLINK BIOTECHNOLOGY CO., LTD., priority 2020, dated 2026).
pEC50: −log10 of the molar value. Read-outs that look alike come from different tables or passages of the source.

Legend:
[1] = Single agent cytotoxicity, CellTiter-Glo; type: cell-based; conditions: human, HepG2.2.15 cells
Method: (§1) Cell line: HepG2.2.15 cells are constructed and provided by WuXi AppTec. The cell culture medium is DMEM/F12 medium supplemented with 2% fetal bovine serum, 2 mM glutamine, 1×non-essential amino acids, 100 U/mL penicillin and 100 µg/mL streptomycin.
(§2) 2.1.1 On the first day, HepG2.2.15 cells were seeded into a 96-well cell culture plate at a density of 60,000 cells/well, and then the cells were cultured overnight at 5% CO2 and 37° C. On the second day, the compound 1 and the compound of formula (IIb) and the compound of formula (IIIb) were diluted and added to a 96-well plate. Each combination was a three-fold plate. The cells were cultured under 5% CO2 and 37° C. for 3 days. On the 5th day, a new culture medium containing the compound was replaced, and the supernatant was collected on the 8th day. The HBsAg in the supernatant was detected by ELISA, and the DNA in the supernatant was extracted at the same time, and the content of HBV DNA in the supernatant was detected by quantitative PCR. After collecting the cell supernatant, add CellTiter-Glo to detect cell viability.

[2] = tested on: HBV; assay: Single agent anti-HBV activity, HBV DNA in supernatant by quantitative PCR, HepG2.2.15 cells; type: cell-based; conditions: Hepatitis B virus, 192 h, day 8
Method: as §1, §2

[3] = Pharmacokinetic analysis of test compounds in AAV/HBV model mice; type: in vivo, C57BL/6 mice
[4] = tested on: HepG2.2.15 cells; assay: CellTiter-Glo cytotoxicity of compound 1 / TDF combination; type: cell-based
Method: 1.1 Day 1, HepG2.2.15 cells were seeded into a 96-well cell culture plate at a density of 40,000 cells/well, and then the cells were cultured overnight at 5% CO2 and 37° C.
1.2 Day 2, the compound 1 and TDF were combined with 7 different concentrations (selected about 8×, 4×, 2×, 1×, 0.5×, 0.25×, 0.125×EC50 concentration gradient) for orthogonal proportioning, and added to 96-well plate, each combination is 3 double plates, and the final concentration of DMSO is 0.5%.
1.3 Day 5, the cell supernatant was discarded, a fresh medium containing the compound was added, and the cells were cultured under 5% CO2, 37° C. for 3 days. On the 8th day, the supernatant from the cell plate treated with the compound was extracted according to the QIAamp 96 DNA Blood Kit (12) instruction.
MacSynegy software (Prichard et al., 1990) was used to process the HBV DNA copy number test data and analyze the effect parameters of compound 1 and TDF in combination. The CellTiter-Glo kit was used to detect the cytotoxicity of the compounds to HepG2.2.15 cells. According to the kit instructions, use a multifunctional microplate reader to detect the chemiluminescence intensity (RLU) of each cell well.

[5] = tested on: HepG2.2.15 cells; assay: Cytotoxicity of the compounds in combination, CellTiter Glo; type: cell-based
Method: as §1
2.2.1 On the first day, HepG2.2.15 cells were seeded into a 96-well cell culture plate at a density of 60,000 cells/well, and then the cells were cultured overnight at 5% CO2 and 37° C. On the second day, different concentrations of compounds were added to treat the cells. Compounds were diluted in gradients, 7×7 concentration combinations, and 3 replicate plates were tested in parallel. The compound concentration tested for joint activity is based on the EC50 value of each compound. The 7 concentration gradients are approximately: 2×, 1×, ½×, ¼×, ⅛×, 1/16× and 1/32×EC50. The compound concentration of the combined activity test experiment is shown in Table 8, and the combination drug arrangement is shown in Table 9. On the 5th day, replace the fresh culture medium containing the compound. On the 8th day, the culture supernatant was collected, DNA was extracted, and the content of HBV DNA was detected by quantitative PCR. At the same time, CellTiter Glo reagent was used to detect cell viability and MacSynergy software was used to analyze the combined effect of the two drugs.

[6] = 10 mg/kg, BID, AAV/HBV model mice, day 27
[7] = C57BL/6, mouse, serum, po, 10 mg/kg, BID, AAV/HBV model mice, day 27

Cc1cc2n(c1)S(=O)(=O)c1ccc(C(=O)NCC[C@H]3COCCO3)cc1NC2=O [Compound 1]
CC50 at 6 days [1]: > 1000 nM
pEC50 [2]: 8.22
AUC0-inf/AUC0-last [3, 6]: 101%
Tlast [3, 6]: 24.0 h
T 1/2 calculation time range ([3]; 10 mg/kg, BID, AAV/HBV model mice, day 27, in h): 9-24
AUC(0-t) ([3]; C57BL/6, mouse, serum, po, 10 mg/kg, BID, AAV/HBV model mice, day 27, read-out: AUC0-8): 26 µM·h
AUC(0-t) ([3]; C57BL/6, mouse, serum, po, 10 mg/kg, BID, AAV/HBV model mice, day 27, read-out: AUC0-last): 47.3 µM·h
AUC(0-inf) [3, 7]: 47.6 µM·h
Cmax [3, 7]: 12200 nM
Tmax [3, 7]: 1 h
half-life [3, 7]: 2.23 h
MRT inf ([3]; C57BL/6, mouse, serum, po, 10 mg/kg, BID, AAV/HBV model mice, day 27, read-out: MRT0-inf): 6.36 h
MRT last ([3]; C57BL/6, mouse, serum, po, 10 mg/kg, BID, AAV/HBV model mice, day 27, read-out: MRT0-last): 6.27 h
concentration at 0 h ([3]; C57BL/6, mouse, serum, group 2, 10 mg/kg BID oral, day 27, 0 hours (before dosage), read-out: average drug concentration in the mouse serum): 78 nM
concentration at 4 h ([3]; C57BL/6, mouse, serum, group 2, 10 mg/kg BID oral, day 27, 4 hours after the first dosage, read-out: average drug concentration in the mouse serum): 1630 nM
concentration at 8 h ([3]; C57BL/6, mouse, serum, group 2, 10 mg/kg BID oral, day 27, 8 hours after the first dosage, read-out: average drug concentration in the mouse serum): 605 nM
concentration at 9 h ([3]; C57BL/6, mouse, serum, group 2, 10 mg/kg BID oral, day 27, 9 hours after the first dosage, read-out: average drug concentration in the mouse serum): 10300 nM
concentration at 12 h ([3]; C57BL/6, mouse, serum, group 2, 10 mg/kg BID oral, day 27, 12 hours after the first dosage, read-out: average drug concentration in the mouse serum): 1280 nM
concentration at 24 h ([3]; C57BL/6, mouse, serum, group 2, 10 mg/kg BID oral, day 27, 24 hours after the first dosage, read-out: average drug concentration in the mouse serum): 66 nM
average cell viability percentage ([4]; Compound 1 0.533 nM + TDF 0 nM): 121.5%
average cell viability percentage ([4]; Compound 1 1.065 nM + TDF 0 nM): 128.1%
average cell viability percentage ([4]; Compound 1 2.131 nM + TDF 0 nM): 124.5%
average cell viability percentage ([4]; Compound 1 4.261 nM + TDF 0 nM): 125.1%
average cell viability percentage ([4]; Compound 1 8.522 nM + TDF 0 nM): 124.3%
average cell viability percentage ([4]; Compound 1 17.04 nM + TDF 0 nM): 123.1%
average cell viability percentage ([4]; Compound 1 34.09 nM + TDF 0 nM): 115.2%
average cell viability percentage ([5]; Compound 1 0.1875 nM + formula (IIIb) 0 nM): 110.07%
average cell viability percentage ([5]; Compound 1 0.1875 nM + formula (IIb) 0 nM): 109.29%
average cell viability percentage ([5]; Compound 1 0.375 nM + formula (IIIb) 0 nM): 112.42%
average cell viability percentage ([5]; Compound 1 0.375 nM + formula (IIb) 0 nM): 109.88%
average cell viability percentage ([5]; Compound 1 0.75 nM + formula (IIIb) 0 nM): 111.36%
average cell viability percentage ([5]; Compound 1 0.75 nM + formula (IIb) 0 nM): 106.91%
average cell viability percentage ([5]; Compound 1 1.5 nM + formula (IIIb) 0 nM): 111.96%
average cell viability percentage ([5]; Compound 1 1.5 nM + formula (IIb) 0 nM): 105.37%
average cell viability percentage ([5]; Compound 1 3 nM + formula (IIIb) 0 nM): 112.58%
average cell viability percentage ([5]; Compound 1 3 nM + formula (IIb) 0 nM): 104.39%
average cell viability percentage ([5]; Compound 1 6 nM + formula (IIIb) 0 nM): 112.45%
average cell viability percentage ([5]; Compound 1 6 nM + formula (IIb) 0 nM): 103.50%
average cell viability percentage ([5]; Compound 1 12 nM + formula (IIIb) 0 nM): 111.17%
average cell viability percentage ([5]; Compound 1 12 nM + formula (IIb) 0 nM): 102.08%
